These results are taken from patent publication US20240218022A1, “ANTI-VISTA MACROCYCLIC PEPTIDES AND COMPOSITIONS” (BRISTOL-MYERS SQUIBB COMPANY, priority 2022, published 2024).

Positions of bridges follow the written chain, without caps; N, C: chain ends. Non-standard residues stand in square brackets, D forms with d. Residues, ends and D or L forms follow the SMILES beside them. Cit = NC(=O)NCCC[C@H](N)C(=O)O; Ahp(2) = CCCCC[C@H](N)C(=O)O; NHexGly = CCCCCCNCC(=O)O; Nle = CCCC[C@H](N)C(=O)O

In this test the target is T1, mouse VISTA (mVISTA) (Mus musculus, UniProt Q9D659).
T1 construct: expressed in transfected cells; host or cells: Human embryonic kidney 293T cells
T1 sequence (Q9D659 33-308): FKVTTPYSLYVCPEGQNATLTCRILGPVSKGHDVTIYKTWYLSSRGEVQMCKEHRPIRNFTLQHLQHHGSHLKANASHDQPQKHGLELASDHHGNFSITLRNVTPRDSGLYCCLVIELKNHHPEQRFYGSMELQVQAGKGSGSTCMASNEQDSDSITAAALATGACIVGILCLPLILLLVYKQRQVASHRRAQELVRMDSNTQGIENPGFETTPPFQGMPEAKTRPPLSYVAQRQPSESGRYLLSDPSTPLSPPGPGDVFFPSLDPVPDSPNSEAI
The test is described as follows: Cell-Based Binding High-Content Assay For mVISTA (HC CBA mVISTA). Particulars: 293T cells expressing mouse VISTA; competition with biotinylated peptide (2 nM); read-out: HC CBA mVISTA IC50. The method in brief: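 Competition of compound with a biotinylated peptide (final 2 nM, 30 min at RT) for binding to mVISTA on 293T cells, run under no-wash or wash (1 h compound preincubation then removal) formats. Readout by Alexa 647–streptavidin imaging on a high-content platform; four-parameter logistic fit gave IC50.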
As for `CCCCCCN1CC(=O)N[C@@H](Cc2ccc(O)cc2)C(=O)N[C@@H](CCCC)C(=O)NCC(=O)N[C@@H](CCCNC(=N)N)C(=O)N[C@@H](CC(C)C)C(=O)N[C@@H](CCCCC)C(=O)N2CCC[C@H]2C(=O)N[C@@H](C(C)C)C(=O)N[C@@H](CC(=O)O)C(=O)N[C@H](C(=O)NCC(N)=O)CSCC(=O)N[C@@H](Cc2ccccc2)C(=O)N[C@@H](Cc2ccc(O)cc2)C(=O)N[C@@H](CC(=O)O)C1=O` [Example 1017] ({CH2CO}-FYD[NHexGly]Y[Nle]GRL[Ahp(2)]PVDCG-NH2; thioether N-14), the IC50 turned out to be 34 nM.

Regarding `CCCCCCN1CC(=O)N[C@@H](Cc2ccc(O)cc2)C(=O)N[C@@H](C(C)C)C(=O)NCC(=O)N[C@@H](CCCNC(=N)N)C(=O)N[C@@H](CC(C)C)C(=O)N[C@@H](CCCCC)C(=O)N2CCC[C@H]2C(=O)N[C@@H](C(C)C)C(=O)N[C@@H](CC(=O)O)C(=O)N[C@H](C(=O)NCC(=O)O)CSCC(=O)N[C@@H](Cc2ccccc2)C(=O)N[C@@H](Cc2ccc(O)cc2)C(=O)N[C@@H](CC(=O)O)C1=O` [Example 1018] ({CH2CO}-FYD[NHexGly]YVGRL[Ahp(2)]PVDCG-OH; thioether N-14), the IC50 came to 33.9 nM.

Turning to `CCCCCCN1CC(=O)N[C@@H](Cc2ccc(O)cc2)C(=O)N[C@@H](CCCC)C(=O)N[C@@H](CC(N)=O)C(=O)N[C@@H](CCCNC(N)=O)C(=O)N[C@@H](CC(C)C)C(=O)N[C@@H](CCCCC)C(=O)N2CCC[C@H]2C(=O)N[C@@H](C(C)C)C(=O)N[C@@H](CC(=O)O)C(=O)N[C@H](C(=O)NCC(=O)O)CSCC(=O)N[C@@H](Cc2ccccc2)C(=O)N[C@@H](Cc2ccc(O)cc2)C(=O)N[C@@H](CC(=O)O)C1=O` [Example 1019] ({CH2CO}-FYD[NHexGly]Y[Nle]N[Cit]L[Ahp(2)]PVDCG-OH; thioether N-14), the IC50 came to 7.9 nM.

For `CCCCCCN1CC(=O)N[C@@H](Cc2ccc(O)cc2)C(=O)N[C@@H](CCCC)C(=O)N[C@@H](CC(N)=O)C(=O)N[C@@H](CCCNC(=N)N)C(=O)N[C@@H](CC(C)C)C(=O)N[C@@H](CCCCC)C(=O)N2CCC[C@H]2C(=O)N[C@@H](C(C)C)C(=O)N[C@@H](CC(=O)O)C(=O)N[C@H](C(=O)NCC(=O)O)CSCC(=O)N[C@@H](Cc2ccccc2)C(=O)N[C@@H](Cc2ccc(O)cc2)C(=O)N[C@@H](CC(=O)O)C1=O` [Example 1020] ({CH2CO}-FYD[NHexGly]Y[Nle]NRL[Ahp(2)]PVDCG-OH; thioether N-14), the IC50 was 22.5 nM.

Consider `CCCCCCN1CC(=O)N[C@@H](Cc2ccc(O)cc2)C(=O)N[C@@H](CCCC)C(=O)N[C@@H](CC(=O)O)C(=O)N[C@@H](CCCNC(=N)N)C(=O)N[C@@H](CC(C)C)C(=O)N[C@@H](CCCCC)C(=O)N2CCC[C@H]2C(=O)N[C@@H](C(C)C)C(=O)N[C@@H](CCCCC)C(=O)N[C@H](C(=O)NCC(=O)O)CSCC(=O)N[C@@H](Cc2ccccc2)C(=O)N[C@@H](Cc2ccc(O)cc2)C(=O)N[C@@H](CC(=O)O)C1=O` [Example 1021] ({CH2CO}-FYD[NHexGly]Y[Nle]DRL[Ahp(2)]PV[Ahp(2)]CG-OH; thioether N-14), for which the half-maximal inhibitory concentration (IC50) is 32.2 nM.

Consider `CCCCCCN1CC(=O)N[C@@H](Cc2ccc(O)cc2)C(=O)N[C@@H](CCCC)C(=O)NCC(=O)N[C@@H](CCCNC(=N)N)C(=O)N[C@@H](CC(C)C)C(=O)N[C@@H](CCCCC)C(=O)N2CCC[C@H]2C(=O)N[C@@H](C(C)C)C(=O)N[C@@H](CCC(=O)O)C(=O)N[C@H](C(=O)NCC(=O)O)CSCC(=O)N[C@@H](Cc2ccccc2)C(=O)N[C@@H](Cc2ccc(O)cc2)C(=O)N[C@@H](CC(=O)O)C1=O` [Example 1022] ({CH2CO}-FYD[NHexGly]Y[Nle]GRL[Ahp(2)]PVECG-OH; thioether N-14), for which the half-maximal inhibitory concentration (IC50) stood at 41.5 nM.

In the case of `CCCCCCN1CC(=O)N[C@@H](Cc2ccc(O)cc2)C(=O)N[C@@H](CCCC)C(=O)NCC(=O)N[C@@H](CCCNC(=N)N)C(=O)N[C@@H](CC(C)C)C(=O)N[C@@H](CCCCC)C(=O)N2CCC[C@H]2C(=O)N[C@@H](C(C)C)C(=O)NCC(=O)N[C@H](C(=O)NCC(=O)O)CSCC(=O)N[C@@H](Cc2ccccc2)C(=O)N[C@@H](Cc2ccc(O)cc2)C(=O)N[C@@H](CC(=O)O)C1=O` [Example 1023] ({CH2CO}-FYD[NHexGly]Y[Nle]GRL[Ahp(2)]PVGCG-OH; thioether N-14), the IC50 is 31 nM.

With `CCCCCCN1CC(=O)N[C@@H](Cc2ccc(O)cc2)C(=O)N[C@@H](CCCC)C(=O)N[C@@H](CC(=O)O)C(=O)N[C@@H](CCCNC(=N)N)C(=O)N[C@@H](CC(C)C)C(=O)N[C@@H](CCCCC)C(=O)N2CCC[C@H]2C(=O)N[C@@H](C(C)C)C(=O)NCC(=O)N[C@H](C(=O)NCC(=O)O)CSCC(=O)N[C@@H](Cc2ccccc2)C(=O)N[C@@H](Cc2ccc(O)cc2)C(=O)N[C@@H](CC(=O)O)C1=O` [Example 1024] ({CH2CO}-FYD[NHexGly]Y[Nle]DRL[Ahp(2)]PVGCG-OH; thioether N-14), the 50% inhibitory concentration (IC50) came to 13.6 nM.

Consider `CCCCCCN1CC(=O)N[C@@H](Cc2ccc(O)cc2)C(=O)N[C@@H](CCCC)C(=O)N[C@@H](CC(=O)O)C(=O)N[C@@H](CCCNC(=N)N)C(=O)N[C@@H](CC(C)C)C(=O)N[C@@H](CCCCC)C(=O)N2CCC[C@H]2C(=O)N[C@@H](C(C)C)C(=O)N[C@@H](CC(C)C)C(=O)N[C@H](C(=O)NCC(=O)O)CSCC(=O)N[C@@H](Cc2ccccc2)C(=O)N[C@@H](Cc2ccc(O)cc2)C(=O)N[C@@H](CC(=O)O)C1=O` [Example 1025] ({CH2CO}-FYD[NHexGly]Y[Nle]DRL[Ahp(2)]PVLCG-OH; thioether N-14), for which the IC50 was 30.6 nM.

In the case of `CCCCCCN1CC(=O)N[C@@H](Cc2ccc(O)cc2)C(=O)N[C@@H](CCCCC)C(=O)N[C@@H](CC(N)=O)C(=O)N[C@@H](CCCNC(=N)N)C(=O)N[C@@H](CC(C)C)C(=O)N[C@@H](CCCCC)C(=O)N2CCC[C@H]2C(=O)N[C@@H](C(C)C)C(=O)N[C@@H](CC(N)=O)C(=O)N[C@H](C(=O)NCC(=O)O)CSCC(=O)N[C@@H](Cc2ccccc2)C(=O)N[C@@H](Cc2ccc(O)cc2)C(=O)N[C@@H](CC(=O)O)C1=O` [Example 1026] ({CH2CO}-FYD[NHexGly]Y[Ahp(2)]NRL[Ahp(2)]PVNCG-OH; thioether N-14), the IC50 stood at 5.5 nM.

For `CCCCCCN1CC(=O)N[C@@H](Cc2ccc(O)cc2)C(=O)N[C@@H](CC(C)C)C(=O)N[C@@H](CC(N)=O)C(=O)N[C@@H](CCCNC(=N)N)C(=O)N[C@@H](CC(C)C)C(=O)N[C@@H](CCCCC)C(=O)N2CCC[C@H]2C(=O)N[C@@H](C(C)C)C(=O)N[C@@H](CC(N)=O)C(=O)N[C@H](C(=O)NCC(N)=O)CSCC(=O)N[C@@H](Cc2ccccc2)C(=O)N[C@@H](Cc2ccc(O)cc2)C(=O)N[C@@H](CC(=O)O)C1=O` [Example 1027] ({CH2CO}-FYD[NHexGly]YLNRL[Ahp(2)]PVNCG-NH2; thioether N-14), the half-maximal inhibitory concentration (IC50) was found to be 36.8 nM.

Turning to `CCCCCCN1CC(=O)N[C@@H](Cc2ccc(O)cc2)C(=O)N[C@@H](CCCC)C(=O)NCC(=O)N[C@@H](CCCNC(=N)N)C(=O)N[C@@H](CC(C)C)C(=O)N[C@@H](CCCCC)C(=O)N2CCC[C@H]2C(=O)N[C@@H](C(C)C)C(=O)N[C@@H](CC(N)=O)C(=O)N[C@H](C(=O)NCC(=O)O)CSCC(=O)N[C@@H](Cc2ccccc2)C(=O)N[C@@H](Cc2ccc(O)cc2)C(=O)N[C@@H](CC(=O)O)C1=O` [Example 1028] ({CH2CO}-FYD[NHexGly]Y[Nle]GRL[Ahp(2)]PVNCG-OH; thioether N-14), the IC50 turned out to be 5.2 nM.

With `CCCCCCN1CC(=O)N[C@@H](Cc2ccc(O)cc2)C(=O)N[C@@H](CCCC)C(=O)N[C@@H](CC(=O)O)C(=O)N[C@@H](CCCNC(=N)N)C(=O)N[C@@H](CC(C)C)C(=O)N[C@@H](CCCCC)C(=O)N2CCC[C@H]2C(=O)N[C@@H](C(C)C)C(=O)N[C@@H](CC(N)=O)C(=O)N[C@H](C(=O)NCC(=O)O)CSCC(=O)N[C@@H](Cc2ccccc2)C(=O)N[C@@H](Cc2ccc(O)cc2)C(=O)N[C@@H](CC(=O)O)C1=O` [Example 1029] ({CH2CO}-FYD[NHexGly]Y[Nle]DRL[Ahp(2)]PVNCG-OH; thioether N-14), the concentration for half-maximal inhibition (IC50) came to 1.1 nM.

Consider `CCCCCCN1CC(=O)N[C@@H](Cc2ccc(O)cc2)C(=O)N[C@@H](CC(C)C)C(=O)N[C@@H](CC(N)=O)C(=O)N[C@@H](CCCNC(=N)N)C(=O)N[C@@H](CC(C)C)C(=O)N[C@@H](CCCCC)C(=O)N2CCC[C@H]2C(=O)N[C@@H](C(C)C)C(=O)N[C@@H](CCCNC(=N)N)C(=O)N[C@H](C(=O)NCC(=O)O)CSCC(=O)N[C@@H](Cc2ccccc2)C(=O)N[C@@H](Cc2ccc(O)cc2)C(=O)N[C@@H](CC(=O)O)C1=O` [Example 1030] ({CH2CO}-FYD[NHexGly]YLNRL[Ahp(2)]PVRCG-OH; thioether N-14), for which the half-maximal inhibitory concentration (IC50) came to 34.5 nM.

Take `CCCCCCN1CC(=O)N[C@@H](Cc2ccc(O)cc2)C(=O)N[C@@H](CCCCC)C(=O)N[C@@H](CC(N)=O)C(=O)N[C@@H](CCCNC(=N)N)C(=O)N[C@@H](CC(C)C)C(=O)N[C@@H](CCCCC)C(=O)N2CCC[C@H]2C(=O)N[C@@H](C(C)C)C(=O)N[C@@H](CO)C(=O)N[C@H](C(=O)NCC(N)=O)CSCC(=O)N[C@@H](Cc2ccccc2)C(=O)N[C@@H](Cc2ccc(O)cc2)C(=O)N[C@@H](CC(=O)O)C1=O` [Example 1031] ({CH2CO}-FYD[NHexGly]Y[Ahp(2)]NRL[Ahp(2)]PVSCG-NH2; thioether N-14): the half-inhibitory concentration (IC50) worked out at 34.7 nM.

Regarding `CCCCCCN1CC(=O)N[C@@H](Cc2ccc(O)cc2)C(=O)N[C@@H](CCCCC)C(=O)N[C@@H](CC(N)=O)C(=O)N[C@@H](C)C(=O)N[C@@H](CC(C)C)C(=O)N[C@@H](CCCCC)C(=O)N2CCC[C@H]2C(=O)N[C@@H](C(C)C)C(=O)N[C@@H](CO)C(=O)N[C@H](C(=O)NCC(N)=O)CSCC(=O)N[C@@H](Cc2ccccc2)C(=O)N[C@@H](Cc2ccc(O)cc2)C(=O)N[C@@H](CC(=O)O)C1=O` [Example 1032] ({CH2CO}-FYD[NHexGly]Y[Ahp(2)]NAL[Ahp(2)]PVSCG-NH2; thioether N-14), the half-inhibitory concentration (IC50) was found to be 11.1 nM.
